Measured values as given in patent US5407918A, “16-membered macrolide derivatives and process for producing the same” (Meiji Seika Kaisha, Ltd., priority 1992, dated 1995).
Values after ≈ are worked out from the molar mass of the structure shown. “Also recorded” adds a separate entry of the source.

Experiments:
esterase [1] = conditions: EP-A-560,147 derivatives; cited from earlier work
[2] = mice; EP-A-560,147; cited from earlier work
[3] = system: some bacteria belonging to the genus Streptococcus or Branhamella; conditions: cited from earlier work
[4] = recovery in urine after oral administration to mice, bioassay; assay type: in vivo; conditions: for dose excreted at 24 h: mouse, 200 mg/kg oral (compound (3)), urine 4 and 24 hours
Protocol: Subsequently, 200 mg/kg of the compound (3) was orally administered to three mice in the same manner as described above.
The three mice were put in a metabolic cage MM type (Sugiyamagen Company, Tokyo, Japan) and urine was collected 4 and 24 hours after the administration of the test compound. The collected urine was filtered through a filter having a pore size of 0.45 μm (Millipore) and was mixed with an equivalent volume of 50% CH3CN-50 mM phosphate (1:1 by volume) buffer (pH 6.5) to serve as a urine sample. The bioassay was carried out in the same manner as described above to determine the concentration of the test compound in the urine sample. The recovering in the urine was calculated according to the following equation. [formula]

metabolism in plasma = assay type: in vitro ADME, rat; conditions: no free hydroxyl group in the neutral sugar moiety formed
Protocol: Each test compound and 50 μl of a methanol solution (10,000 γ) were added to 950 μl of thawed rat plasma and the resulting mixture was incubated at 37° C. for 24 hours. After completion of the incubation, a 20 μl portion of the mixture was added to 980 μl of 0.05M phosphate buffer (pH 7.6). A 20 μl portion of the sample solution was used to measure antimicrobial activity against M. luteus. Separately, the calibration curve was prepared by using a methanol solution containing each test compound. The starting activity of each compound in the plasma was referred to as 100%.

S. aureus M133 = assay: MIC, agar plate dilution method; assay type: cell-based; conditions: Staphylococcus aureus, 37° C., 20 hours, read-out: Antimicrobial activity (MIC)
In short: (§1)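 Agar plate dilution on Sensitivity disk agar with 5% horse blood; 5 μl inoculum of about 10^6 CFU/ml, Branhamella precultured on blood agar. MIC read after 20 hours at 37° C.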

H. influenzae 9334 = assay: MIC, agar plate dilution method; assay type: cell-based; conditions: Haemophilus influenzae; H. influenzae 9334; 37° C., 20 hours; read-out: Antimicrobial activity (MIC)
In short: as §1

M. pneumoniae Numata = assay: MIC, agar plate dilution method; assay type: cell-based; conditions: Mycoplasmoides pneumoniae, 20 h, read-out: Antimicrobial activity (MIC)
In short: as §1

E. faecalis W-73 = assay: MIC, agar plate dilution method; assay type: cell-based; conditions: Enterococcus faecalis, W73; E. faecalis W-73; 37° C., 20 hours; read-out: Antimicrobial activity (MIC)
In short: as §1

S. aureus MS15009/pMS99 = assay: MIC, agar plate dilution method; assay type: cell-based; conditions: Staphylococcus aureus, MS15009/PMS99, 20 h, read-out: Antimicrobial activity (MIC)
In short: (§2)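 Using blood-supplemented (5% horse) Sensitivity disk agar, we inoculated 5 μl spots of ~10^6 CFU/ml cultures and scored MIC after incubating 20 hours at 37° C. Broth seed cultures served most strains; Branhamella came from blood agar.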

M. pneumoniae FH = assay: MIC, agar plate dilution method; assay type: cell-based; conditions: Mycoplasmoides pneumoniae, 20 h, read-out: Antimicrobial activity (MIC)
In short: as §1

E. coli NIHJ JC-2 = assay: MIC, agar plate dilution method; assay type: cell-based; conditions: Escherichia coli, NIHJJC2, 20 h, read-out: Antimicrobial activity (MIC)
In short: as §1

S. aureus MS15026 = assay: MIC, agar plate dilution method; assay type: cell-based; conditions: Staphylococcus aureus, 37° C., 20 hours, read-out: Antimicrobial activity (MIC)
In short: as §1

S. Pyogenes Cook = assay: MIC, agar plate dilution method; assay type: cell-based; conditions: Streptococcus pyogenes, 37° C., 20 hours, read-out: Antimicrobial activity (MIC)
In short: as §1

S. epidermidis ATCC14990 = assay: MIC, agar plate dilution method; assay type: cell-based; conditions: Staphylococcus epidermidis, 37° C., 20 hours, read-out: Antimicrobial activity (MIC)
In short: as §1

K. pneumoniae PC1602 = assay: MIC, agar plate dilution method; assay type: cell-based; conditions: Klebsiella pneumoniae, 37° C., 20 hours, read-out: Antimicrobial activity (MIC)
In short: as §1

M. pneumoniae Mac = assay: MIC, agar plate dilution method; assay type: cell-based; conditions: Mycoplasmoides pneumoniae, 20 h, read-out: Antimicrobial activity (MIC)
In short: as §1

M. luteus ATCC9341 = assay: MIC, agar plate dilution method; assay type: cell-based; conditions: Micrococcus luteus; M. luteus ATCC9341; 37° C., 20 hours; read-out: Antimicrobial activity (MIC)
In short: as §1

B. catarrhalis W-0500 = assay: MIC, agar plate dilution method; assay type: cell-based; conditions: Moraxella catarrhalis, W0500, 37° C., 20 hours, read-out: Antimicrobial activity (MIC)
In short: as §1

S. pneumoniae IP692 = assay: MIC, agar plate dilution method; assay type: cell-based; conditions: Streptococcus pneumoniae; S. pneumoniae IP692; 37° C., 20 hours; read-out: Antimicrobial activity (MIC)
In short: as §1

M. pneumoniae FH-P24 = assay: MIC, agar plate dilution method; assay type: cell-based; conditions: Mycoplasmoides pneumoniae, FHP24, 20 h, read-out: Antimicrobial activity (MIC)
In short: as §2

S. aureus MS15027 = assay: MIC, agar plate dilution method; assay type: cell-based; conditions: Staphylococcus aureus, 37° C., 20 hours, read-out: Antimicrobial activity (MIC)
In short: as §1

B. catarrhalis W-0506 = assay: MIC, agar plate dilution method; assay type: cell-based; conditions: Moraxella catarrhalis, W0506, 37° C., 20 hours, read-out: Antimicrobial activity (MIC)
In short: as §1

S. aureus 209P JC-1 = assay: MIC, agar plate dilution method; assay type: cell-based; conditions: Staphylococcus aureus; S. aureus 209P JC-1; 37° C., 20 hours; read-out: Antimicrobial activity (MIC)
In short: as §1

S. Pneumoniae Type 1 = assay: MIC, agar plate dilution method; assay type: cell-based; conditions: Streptococcus pneumoniae; S. Pneumoniae Type 1; 37° C., 20 hours; read-out: Antimicrobial activity (MIC)
In short: as §1

S. aureus MS15009/pMS98 = assay: MIC, agar plate dilution method; assay type: cell-based; conditions: Staphylococcus aureus, MS15009/PMS98, 20 h, read-out: Antimicrobial activity (MIC)
In short: as §2

S. aureus M126 = assay: MIC, agar plate dilution method; assay type: cell-based; conditions: Staphylococcus aureus; S. aureus M126; 37° C., 20 hours; read-out: Antimicrobial activity (MIC)
In short: as §1

[5] = system: Gram-positive bacteria and Mycoplasma; assay: antimicrobial activity in vitro (summary in words); assay type: cell-based; conditions: from Table 1
In short: as §1

Mycoplasma = assay: anti-Mycoplasma activity (summary in words); assay type: cell-based
Protocol: Antimicrobial activities of the compounds of the present invention were determined by measuring minimum inhibitory concentration (MIC). Minimum inhibitory concentration was determined by the agar plate dilution method in the following manner.
Test strains were subjected to seed culture using Sensitivity test broth (STB, Nissui Pharmaceutical) except that the strains belonging to the genus Streptococcus, Branhamella and Haemophilus were cultured on blood agar plate. A 5 μl portion of cell suspension of the test strains having about 10^6 CFU/ml was inoculated into Sensitivity disk agar (SDA, Nissui Pharmaceutical) supplemented with 5% horse blood and incubated at 37° C. for 20 hours. Then, MIC was measured. For comparison, MDM and leucomycin A7 (LM-A7) was also tested.

[6] = concentration in serum after oral administration to mice, bioassay; assay type: in vivo, mice (Jcl:ICR); conditions: for Cmax: mouse, serum, 200 mg/kg, M. luteus bioassay, read-out: maximum concentration in the serum
In short: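 Male 4-week-old Jcl:ICR mice dosed orally with compound suspended in 0.2% CMC (4 mg/ml, 1 ml; another compound at 200 mg/kg). Serum sampled 30-360 min (n=2), diluted 1:1 in CH3CN-phosphate pH 7.0; concentration measured by M. luteus ATCC9341 agar-well bioassay (32 °C, 18 h) against a calibration curve.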

esterase [7] = conditions: in vivo; cited from earlier work
[8] = Yakugaku Zasshi, 102 (8), 781 (1982); cited from earlier work
[9] = oral, man and dog; cited from earlier work
[10] = Journal of Antibiotics, 36 (4), 442 (1983); cited from earlier work

CCC(=O)O[C@@H]1CC(=O)O[C@H](C)C/C=C/C=C/C(=O)[C@H](C)C[C@H](CC=O)[C@H](O[C@@H]2O[C@H](C)[C@@H](O[C@H]3C[C@@](C)(OC)[C@@H](OCCC(C)C)[C@H](C)O3)[C@H](N(C)C)[C@H]2O)[C@H]1OC [4"-O-depropionyl-4"-O-isoamyl-3"-O-methylmidecamycin A3]
attack of the mycarose moiety by esterase (esterase [1]): scarcely attacked by esterase | maximum concentration in serum compared with marketed 16-membered macrolide antibiotics [2]: clearly improved | recovery in urine compared with marketed 16-membered macrolide antibiotics [2]: clearly improved | antimicrobial activity compared with MOM [3]: enhanced antimicrobial activity

CCC(=O)O[C@@H]1CC(=O)O[C@H](C)C/C=C/C=C/[C@H](O)[C@H](C)C[C@H](CC=O)[C@H](O[C@@H]2O[C@H](C)[C@@H](O[C@H]3C[C@@](C)(OC)[C@@H](OCCC(C)C)[C@H](C)O3)[C@H](N(C)C)[C@H]2O)[C@H]1OC [(3), 4"-O-depropionyl-4"-O-isoamyl-3"-O-methylmidecamycin A1]
degree of loss of the antimicrobial activity in the plasma compared with MOM (M. luteus): lower than that of MOM | stability in the living mouse body (sustaining the antimicrobial activity) [4]: highly stable | recovery in the urine compared with CAM ([4]; 200 mg/kg oral): slightly lower than that of CAM | dose excreted at 24 h [4]: 20% | extent of metabolism (metabolism in plasma): hardly metabolized | MIC (S. aureus M133): 0.78 µg/mL (≈ 0.926 µM) | MIC (H. influenzae 9334): 6.25 µg/mL (≈ 7.42 µM) | MIC (M. pneumoniae Numata): 0.025 µg/mL (≈ 0.0297 µM) | MIC (E. faecalis W-73): 3.13 µg/mL (≈ 3.72 µM) | MIC (S. aureus MS15009/pMS99): > 100 µg/mL | MIC (M. pneumoniae FH): 1.56 µg/mL (≈ 1.85 µM) | MIC (E. coli NIHJ JC-2): > 100 µg/mL | MIC (S. aureus MS15026): > 100 µg/mL | MIC (S. Pyogenes Cook): 0.1 µg/mL (≈ 0.119 µM) | MIC (S. epidermidis ATCC14990): 1.56 µg/mL (≈ 1.85 µM) | MIC (K. pneumoniae PC1602): > 100 µg/mL | MIC (M. pneumoniae Mac): 0.05 µg/mL (≈ 0.0594 µM) | MIC (M. luteus ATCC9341): 0.05 µg/mL (≈ 0.0594 µM) | MIC (B. catarrhalis W-0500): 0.78 µg/mL (≈ 0.926 µM) | MIC (S. pneumoniae IP692): 0.1 µg/mL (≈ 0.119 µM) | MIC (M. pneumoniae FH-P24): 0.025 µg/mL (≈ 0.0297 µM) | MIC (S. aureus MS15027): 0.78 µg/mL (≈ 0.926 µM) | MIC (B. catarrhalis W-0506): 1.56 µg/mL (≈ 1.85 µM) | MIC (S. aureus 209P JC-1): 0.2 µg/mL (≈ 0.238 µM) | MIC (S. Pneumoniae Type 1): 0.2 µg/mL (≈ 0.238 µM) | MIC (S. aureus MS15009/pMS98): 0.78 µg/mL (≈ 0.926 µM) | MIC (S. aureus M126): > 100 µg/mL | antimicrobial activities compared with MDM [5]: comparable to, or even exceeding, that of MDM | antimicrobial activities on Gram-positive bacteria and Mycoplasma [5]: strong antimicrobial activities | anti-Mycoplasma activity (Mycoplasma): practically effective anti-Mycoplasma activity | pharmacokinetics in mice (in words) [6]: excellent pharmacokinetics | Cmax [6]: 11300 ng/mL | maximum concentration in the serum, comparison in words ([6]; versus clarythromycin (CAM) or other 16-membered macrolides): comparable to that of clarythromycin (CAM); also recorded: considered the highest one among 16-membered macrolide compounds having a free hydroxyl group at the 9-position

CCC(=O)O[C@@H]1CC(=O)O[C@H](C)C/C=C/C=C/[C@H](OC(C)=O)[C@H](C)C[C@H](CC=O)[C@H](O[C@@H]2O[C@H](C)[C@@H](O[C@H]3C[C@@](C)(OC(C)=O)[C@@H](OC(=O)CC)[C@H](C)O3)[C@H](N(C)C)[C@H]2O)[C@H]1OC [MOM, miokamycin, reference compound]
metabolism of the two acyl groups in the neutral sugar moiety (esterase [7]): removed with esterase in vivo | metabolic pattern of the mycarose moiety in human compared with rat [8]: almost the same as that in rat | dose excreted at 24 h [4]: < 2% | Cmax [6]: 6200 ng/mL

CCCC(=O)O[C@H]1[C@H](C)O[C@@H](O[C@H]2[C@H](N(C)C)[C@@H](O)[C@H](O[C@H]3[C@@H](CC=O)C[C@@H](C)[C@@H](O)/C=C/C=C/C[C@@H](C)OC(=O)C[C@@H](O)[C@@H]3OC)O[C@@H]2C)C[C@@]1(C)OC(=O)CC [RKM, rokitamycin, reference compound]
metabolism of the two acyl groups in the neutral sugar moiety (esterase [7]): removed with esterase in vivo | dose excreted at 24 h [4]: < 2% | Cmax [6]: 2900 ng/mL | major metabolite with a cleaved lactone ring [9]: no compound with a cleaved lactone ring has been reported as a major metabolite

CO[C@@H]1[C@@H](O[C@@H]2O[C@H](C)[C@@H](O[C@H]3C[C@@](C)(O)[C@@H](O)[C@H](C)O3)[C@H](N(C)C)[C@H]2O)[C@@H](CC=O)C[C@@H](C)[C@@H](O[C@H]2CC[C@H](N(C)C)[C@@H](C)O2)/C=C/C=C/C[C@@H](C)OC(=O)C[C@H]1OC(C)=O [spiramycin II]
sustained antimicrobial activity in rat plasma compared with spiramycin I [10]: shows a sustained antimicrobial activity in rat plasma
